Measured values as given in patent US20090233942A1, “Genetic markers associated with response to antidepressants” (priority 2008, published 2009).

System: adult patients diagnosed with MDD
Assay: Eight-week randomized, double-blind, placebo-controlled study: association of sequenced gene markers (Tables 1-17) with vilazodone response as change of MADRS
Format: in vivo, human
Details: mean MADRS decrease
Text: There was a wide range of inter-individual variability in response to vilazodone as well as to placebo and the active comparators. This variability may be partially due to genetic differences among the individuals treated. This example illustrates a randomized, double-blind, placebo-controlled, multicenter, eight-week study designed to discover genetic markers of response to vilazodone in adult patients diagnosed with MDD by the DSM-IV-TR criteria. Patients must have met all of the following inclusion criteria to be considered for enrollment in the study: (1) 18-65 years of age; (2) diagnosis of MDD, single episode or recurrent, according to DSM-IV-TR (296.2/296.3) with a current Major Depressive Episode of less than one year's duration with a minimum duration of at least 4 weeks; (3) HAM-D score≧22 on the first 17 items of the 21-item HAM-D at screening and baseline visits; (4) HAM-D item 1 (depressed mood) score≧2 at the screening visit and the baseline visit; (5) provision of written informed consent to participate; and (6) ability to speak, read and understand English and to respond to questions and follow simple instructions.
Following randomization into vilazodone and placebo groups, patients began the forced titration schedule. Patients received 10 mg qd until Visit 3 (approximately Day 7). At Visit 3 patients received 20 mg qd until Visit 4 (approximately Day 14). At Visit 4 patients received the target dose of 40 mg qd (approximately Day 15). A total of 152 patients completed the vilazodone arm, while 154 patients completed the placebo arm.
This example illustrates genotyping of the study group for the ACE, ATP5C3, BCL2L1, CYP2C9, DRD3, FOS, DTNBP1, GABRG3, GRIA4, LAMA4, MAPK1, NPY1R, OPRD1, OPRM1, PER3, PLCB1, and PSMD1 polymorphic sites selected by the inventors herein for analysis. Genomic DNA was isolated from blood obtained from each individual and amplified target regions containing the polymorphic sites in Tables A-21 to A-37 (Appendix A) were sequenced to determine the genotypes at these polymorphic sites. Tailed (Universal M13 Forward and Reverse) PCR primers were designed using the sequence of SEQ ID NO:1 for ACE, SEQ ID NO:2 for ATP5C3, SEQ ID NO:3 for BCL2L1, SEQ ID NO:4 for CYP2C9, SEQ ID NO:5 for DRD3, SEQ ID NO:6 for FOS, SEQ ID NO:7 for DTNBP1, SEQ ID NO:8 for GABRG3, SEQ ID NO:9 for GRIA4, SEQ ID NO:10 for LAMA4, SEQ ID NO:11 for MAPK1, SEQ ID NO:12 for NPY1R, SEQ ID NO:13 for OPRD1, SEQ ID NO:14 for OPRM1, SEQ ID NO:15 for PER3, SEQ ID NO:16 for PLCB1, and SEQ ID NO:17 for PSMD1. Amplified PCR products were sequenced using Applied Biosystems' Big Dye® Terminator v 3.1 cycle sequencing kit according to manufacturer's instructions. The reaction products were then electrophoresed using an Applied Biosystems 3700 or 3730xl DNA analyzer. Polymorphisms were identified using the Polyphred program, and confirmed by visual inspection.
Haplotypes were estimated from the unphased genotypes using a computer-implemented algorithm for assigning haplotypes to unrelated individuals in a population sample, essentially as described in WO 01/80156. In this method, haplotypes are assigned directly from individuals who are homozygous at all sites or heterozygous at no more than one of the variable sites. This list of haplotypes is then used to deconvolute the unphased genotypes in the remaining (multiply heterozygous) individuals.
This example illustrates analysis of the markers in Tables A-1 to A-17 (Appendix A) for association with vilazodone response. A proprietary algorithm was used as a tool for finding associations between markers and outcomes. The clinical outcomes were improvement in disease over eight weeks of treatment with vilazodone as measured by the MADRS scale. A linear model was first fitted on the covariates, which were treatment center, race, ethnicity, and baseline values. […]

[1] = PLCB1 marker 1, carriers vs non-carriers
[2] = PLCB1 marker 2, carriers vs non-carriers
[3] = PLCB1 marker 3, carriers vs non-carriers
[4] = PLCB1 marker 4, carriers vs non-carriers
[5] = PLCB1 marker 5, carriers vs non-carriers
[6] = PLCB1 marker 6, carriers vs non-carriers
[7] = PLCB1 marker 7, carriers vs non-carriers
[8] = PLCB1 marker 8, carriers vs non-carriers
[9] = PLCB1 marker 9, carriers vs non-carriers
[10] = PLCB1 marker 10, carriers vs non-carriers
[11] = PLCB1 marker 11, carriers vs non-carriers
[12] = PLCB1 marker 12, carriers vs non-carriers
[13] = PLCB1 marker 13, carriers vs non-carriers
[14] = PLCB1 marker 17, carriers vs non-carriers
[15] = PLCB1 marker 18, carriers vs non-carriers
[16] = PLCB1 marker 19, carriers vs non-carriers
[17] = PLCB1 marker 20, carriers vs non-carriers
[18] = PLCB1 marker 21, carriers vs non-carriers
[19] = PLCB1 marker 22, carriers vs non-carriers
[20] = PLCB1 marker 23, carriers vs non-carriers
[21] = PLCB1 marker 24, carriers vs non-carriers
[22] = PLCB1 marker 25, carriers vs non-carriers
[23] = PLCB1 marker 26, carriers vs non-carriers
[24] = PLCB1 marker 27, carriers vs non-carriers
[25] = PLCB1 marker 28, carriers vs non-carriers
[26] = PLCB1 marker 29, carriers vs non-carriers
[27] = PLCB1 marker 30, carriers vs non-carriers
[28] = PLCB1 marker 31, carriers vs non-carriers
[29] = PLCB1 marker 32, carriers vs non-carriers
[30] = PLCB1 marker 33, carriers vs non-carriers
[31] = PLCB1 marker 34, carriers vs non-carriers
[32] = PLCB1 marker 35, carriers vs non-carriers
[33] = PLCB1 marker 36, carriers vs non-carriers
[34] = PLCB1 marker 37, carriers vs non-carriers
[35] = PLCB1 marker 38, carriers vs non-carriers
[36] = PLCB1 marker 39, carriers vs non-carriers
[37] = PLCB1 marker 40, carriers vs non-carriers
[38] = PLCB1 marker 41, carriers vs non-carriers
[39] = PLCB1 marker 42, carriers vs non-carriers
[40] = PLCB1 marker 43, carriers vs non-carriers
[41] = PLCB1 marker 44, carriers vs non-carriers
[42] = PLCB1 marker 45, carriers vs non-carriers
[43] = PLCB1 marker 46, carriers vs non-carriers
[44] = PLCB1 marker 47, carriers vs non-carriers
[45] = PLCB1 marker 48, carriers vs non-carriers
[46] = PLCB1 marker 49, carriers vs non-carriers
[47] = PLCB1 marker 50, carriers vs non-carriers
[48] = PLCB1 marker 51, carriers vs non-carriers
[49] = PLCB1 marker 52, carriers vs non-carriers
[50] = PLCB1 marker 53, carriers vs non-carriers

Cl.N#Cc1ccc2[nH]cc(CCCCN3CCN(c4ccc5oc(C(N)=O)cc5c4)CC3)c2c1 [Vilazodone, 5-{4-[4-(5-Cyano-3-indolyl)-butyl]-1-piperazinyl}-benzofuran-2-carboxamide hydrochloride]
−4.3: Response difference (all ethnic.) [5] | Response difference (all ethnic.) [6] | Response difference (all ethnic.) [8]
−7: Response difference (Cauc. only) [12]
−4.7: Response difference (all ethnic.) [14] | Response difference (all ethnic.) [15] | Response difference (all ethnic.) [17] | Response difference (all ethnic.) [19]
−6.7: Response difference (Cauc. only) [17] | Response difference (Cauc. only) [19]
−5.6: Response difference (all ethnic.) [12]
−6.6: Response difference (Cauc. only) [4] | Response difference (Cauc. only) [16] | Response difference (Cauc. only) [37] | Response difference (Cauc. only) [38] | Response difference (Cauc. only) [39] | Response difference (Cauc. only) [40] | Response difference (Cauc. only) [41] | Response difference (Cauc. only) [42] | Response difference (Cauc. only) [43] | Response difference (Cauc. only) [44] | Response difference (Cauc. only) [45] | Response difference (Cauc. only) [46] | Response difference (Cauc. only) [47] | Response difference (Cauc. only) [48] | Response difference (Cauc. only) [49] | Response difference (Cauc. only) [50]
−6.1: Response difference (Cauc. only) [1] | Response difference (Cauc. only) [20]
−4.8: Response difference (all ethnic.) [1] | Response difference (all ethnic.) [2] | Response difference (all ethnic.) [20] | Response difference (all ethnic.) [21]
−5.1: Response difference (all ethnic.) [3] | Response difference (all ethnic.) [4] | Response difference (all ethnic.) [9] | Response difference (all ethnic.) [22] | Response difference (all ethnic.) [23] | Response difference (all ethnic.) [24] | Response difference (all ethnic.) [25] | Response difference (all ethnic.) [26] | Response difference (all ethnic.) [27] | Response difference (all ethnic.) [28] | Response difference (all ethnic.) [29] | Response difference (all ethnic.) [30] | Response difference (all ethnic.) [31] | Response difference (all ethnic.) [32] | Response difference (all ethnic.) [33] | Response difference (all ethnic.) [34] | Response difference (all ethnic.) [35] | Response difference (all ethnic.) [36] | Response difference (all ethnic.) [37] | Response difference (all ethnic.) [38] | Response difference (all ethnic.) [39] | Response difference (all ethnic.) [40] | Response difference (all ethnic.) [41] | Response difference (all ethnic.) [42] | Response difference (all ethnic.) [43] | Response difference (all ethnic.) [44] | Response difference (all ethnic.) [45] | Response difference (all ethnic.) [46] | Response difference (all ethnic.) [47] | Response difference (all ethnic.) [48] | Response difference (all ethnic.) [49] | Response difference (all ethnic.) [50]
−4.9: Response difference (all ethnic.) [13]
−4.6: Response difference (all ethnic.) [10] | Response difference (all ethnic.) [16]
−5.2: Response difference (all ethnic.) [11]
−6.2: Response difference (Cauc. only) [2] | Response difference (Cauc. only) [13] | Response difference (Cauc. only) [21]
−5.9: Response difference (Cauc. only) [5] | Response difference (Cauc. only) [18]
−6: Response difference (Cauc. only) [6] | Response difference (Cauc. only) [8] | Response difference (Cauc. only) [14] | Response difference (Cauc. only) [15]
−5.4: Response difference (Cauc. only) [7]
−4.2: Response difference (all ethnic.) [18]
−3.9: Response difference (all ethnic.) [7]
−5.8: Response difference (Cauc. only) [10]
−6.5: Response difference (Cauc. only) [3] | Response difference (Cauc. only) [22] | Response difference (Cauc. only) [23] | Response difference (Cauc. only) [24] | Response difference (Cauc. only) [25] | Response difference (Cauc. only) [26] | Response difference (Cauc. only) [27] | Response difference (Cauc. only) [28] | Response difference (Cauc. only) [29] | Response difference (Cauc. only) [30] | Response difference (Cauc. only) [31] | Response difference (Cauc. only) [32] | Response difference (Cauc. only) [33] | Response difference (Cauc. only) [34] | Response difference (Cauc. only) [35] | Response difference (Cauc. only) [36]
−6.4: Response difference (Cauc. only) [9] | Response difference (Cauc. only) [11]
